Molecules are shown by their SMILES. Residues, ends and D or L forms follow the SMILES beside them. *: point of attachment. Cbz = O=C(OCc1ccccc1)*; Boc = CC(C)(C)OC(=O)*; CH2Cl = ClC*

The term LD50 denotes the dose expected to kill half of the subjects tested.

The test system of data set [1] is experimental amnestic rats. The experiment in a line: passive avoidance response of rats (scopolamine-induced amnesia), retention test. The data set is classed as in vivo, male Wister SLC rat. The conditions noted are these: scopolamine 3 mg/kg i.p. The procedure:
The method of assay of the anti-amnestic action was carried out according to the method reported by A. Kubota et al. in Int. […] A passive avoidance chamber used in this test was surrounded with inside-visible transparent plastic plates and included an electrifiable grid floor (30 cm in length and 30 cm in width) capable of being derivered with an electric current of 1.7 mA in strength for electric foot shock and a platform (15 cm in length, 15 cm in width and 4 cm in height) placed at the right back corner thereof. A male Wister SLC rat (weighing 100-150 g) was placed in the passive avoidance chamber and, when he stepped down on the floor, the electric current was sent to the grid continuously until he went up on the platform. Repeating this test with another rat, the rats stayed on the platform for more than 15 seconds were taken out of the chamber, being regarded to have learned the situation. This electric shock was normally 2 or 3 times. To avoid any difference in the rats, those required 10 seconds for the first step-down and those stepped down on the floor at least 5 times were excluded. Among the learned or trained rats, the first control group of them were intraperitoneally administered with 0.5% CMC solution and the other groups of them were intraperitoneally administered with scopolamine hydrobromide in a dose of 3 mg/Kg to prepare experimental amnestic rats. The prolinal derivatives of the general formula to be tested were in each case intraperitoneally or orally administered to the rats in an amount shown in Table 1 or 2 one after completion of the learning. In each case, the polinal derivatives are used as having been dissolved or suspended in a 0.5% CMC solution.

A short description of another data set: Toxicity test (LD50). As to conditions: mouse, in vivo; ip, ICR male mice. The protocol: Using 4-weeks-old male ICR mice weighing 15-20 g, the value of LD50 was calculated by orally or intraperitoneally administering the prolinal derivatives to the mice and counting the deceased mice according to the conventional method.
In data set [2] the test system is proline-specific endopeptidase (post-proline cleaving enzyme). The conditions noted are these: cited from earlier work.

Regarding `CC(=O)NCC(=O)N1CCC[C@H]1C=O` [Acetyl-glycyl-prolinal, acetyl-glycyl-prolinal] (Ac-Gly-Pro-aldehyde), in data set [1] (1.3 mg/kg i.p. after training), the “Retention Test Latency, 24 hr” value was 274.9 s and the “Retention Test Latency, 48 hr” value was 198.6 s. Besides, in data set [1] (1.3 mg/kg p.o. after training), the “Retention Test Latency, 24 hr” value turned out to be 221.6 s and the “Retention Test Latency, 48 hr” value is 143.2 s. Further, the LD50 in the data set “Toxicity test (LD50)” was > 1000 mg/kg.

In the case of `CC(=O)N1CCC[C@H]1C(=O)N1CCC[C@H]1C=O` [Acetyl-prolyl-prolinal, acetyl-prolyl-prolinal] (Ac-Pro-Pro-aldehyde), the “Retention Test Latency, 24 hr” value in data set [1] (2.3 mg/kg i.p. after training) was > 300.0 s; in data set [1] (2.3 mg/kg p.o. after training), 204.2 s. The “Retention Test Latency, 48 hr” value is > 300.0 s in data set [1] (2.3 mg/kg i.p. after training) and 177.4 s in data set [1] (2.3 mg/kg p.o. after training). This compound registered an LD50 in “Toxicity test (LD50)” of 767 mg/kg.

Take `C[C@H](NC(=O)OCc1ccccc1)C(=O)N1CCC[C@H]1C=O` [N--Benzyloxycarbonyl-alanyl-prolinal, N-benzyloxycarbonyl-alanyl-prolinal] (Cbz-Ala-Pro-aldehyde): in data set [1] (2.0 mg/kg i.p. after training), the “Retention Test Latency, 24 hr” value is 189.0 s and the “Retention Test Latency, 48 hr” value was determined as 203.4 s. Moreover, in data set [1] (2.0 mg/kg p.o. after training), the “Retention Test Latency, 24 hr” value is 165.4 s and the “Retention Test Latency, 48 hr” value came to 155.2 s. Besides, in the data set “Toxicity test (LD50)”, the LD50 amounted to 954 mg/kg.

For the compound `O=C[C@@H]1CCCN1C(=O)CNC(=O)OCc1ccccc1` [N--Benzyloxycarbonyl-glycyl-prolinal, N-benzyloxycarbonyl-glycyl-prolinal] (Cbz-Gly-Pro-aldehyde), in data set [1] (1.9 mg/kg i.p. after training), the “Retention Test Latency, 24 hr” value is > 300.0 s and the “Retention Test Latency, 48 hr” value was > 300.0 s. In addition, in data set [1] (1.9 mg/kg p.o. after training), the “Retention Test Latency, 24 hr” value amounted to 230.4 s and the “Retention Test Latency, 48 hr” value was determined as 175.5 s. Also, in the data set “Toxicity test (LD50)”, the LD50 was > 1000 mg/kg.

As to `CC(C)C[C@H](NC(=O)OCc1ccccc1)C(=O)N1CCC[C@H]1C=O` [N--Benzyloxycarbonyl-leucyl-prolinal, N-benzyloxycarbonyl-leucyl-prolinal] (Cbz-Leu-Pro-aldehyde), in data set [1] (3.5 mg/kg i.p. after training), the “Retention Test Latency, 24 hr” value is > 300.0 s and the “Retention Test Latency, 48 hr” value was > 300.0 s. In data set [1] (3.5 mg/kg p.o. after training), the “Retention Test Latency, 24 hr” value came to 281.6 s and the “Retention Test Latency, 48 hr” value was determined as 219.5 s. In addition, in “Toxicity test (LD50)”, the LD50 was > 1000 mg/kg.

For the compound `O=C[C@@H]1CCCN1C(=O)[C@@H]1CCCN1C(=O)OCc1ccccc1` [N--Benzyloxycarbonyl-prolyl-prolinal, N-benzyloxycarbonyl-prolyl-prolinal] (Cbz-Pro-Pro-aldehyde), the LD50 in “Toxicity test (LD50)” is > 1000 mg/kg.

As for `CC(C)[C@H](NC(=O)OCc1ccccc1)C(=O)N1CCC[C@H]1C=O` [N--Benzyloxycarbonyl-valyl-prolinal, N-benzyloxycarbonyl-valyl-prolinal] (Cbz-Val-Pro-aldehyde), in data set [1] (2.2 mg/kg i.p. after training), the “Retention Test Latency, 24 hr” value is > 300.0 s and the “Retention Test Latency, 48 hr” value was > 300.0 s. Also, in data set [1] (2.2 mg/kg p.o. after training), the “Retention Test Latency, 24 hr” value was 254.8 s and the “Retention Test Latency, 48 hr” value turned out to be 210.5 s. Moreover, the LD50 in the data set “Toxicity test (LD50)” worked out at 825 mg/kg.

As to `O=C(NCC(=O)N1CCC[C@H]1C(=O)CCl)OCc1ccccc1` [N-benzyloxycarbonylglycyl-L-prolyl-chloromethane] (Cbz-Gly-Pro-CH2Cl), in data set [2], the “inhibitory action to the endopeptidase” value is listed as “strong inhibitory action”.

In the case of `C[C@H](NC(=O)OC(C)(C)C)C(=O)N1CCC[C@H]1C=O` [t-Butyloxycarbonyl-alanyl-prolinal, t-butyloxycarbonyl-alanyl-prolinal] (Boc-Ala-Pro-aldehyde), the “Retention Test Latency, 24 hr” value in data set [1] (1.8 mg/kg i.p. after training) was determined as 293.5 s; in data set [1] (1.8 mg/kg p.o. after training) it was 239.8 s. Also, the “Retention Test Latency, 48 hr” value in data set [1] (1.8 mg/kg i.p. after training) was 250.4 s; in data set [1] (1.8 mg/kg p.o. after training), 226.7 s. In “Toxicity test (LD50)”, this compound yielded an LD50 of 796 mg/kg.

Take `CC(C)(C)OC(=O)N[C@@H](Cc1ccccc1)C(=O)N1CCC[C@H]1C=O` [t-Butyloxycarbonyl-phenylalanyl-prolinal, t-butyloxycarbonyl-phenylalanyl-prolinal] (Boc-Phe-Pro-aldehyde): in data set [1] (3.0 mg/kg i.p. after training), the “Retention Test Latency, 24 hr” value is > 300.0 s and the “Retention Test Latency, 48 hr” value came out at 264.3 s. Moreover, in data set [1] (3.0 mg/kg p.o. after training), the “Retention Test Latency, 24 hr” value is > 300.0 s and the “Retention Test Latency, 48 hr” value is 250.2 s. Further, the LD50 in the data set “Toxicity test (LD50)” was > 1000 mg/kg.

For the compound `CC(C)(C)OC(=O)N[C@@H](CO)C(=O)N1CCC[C@H]1C=O` [t-Butyloxycarbonyl-seryl-prolinal, t-butyloxycarbonyl-seryl-prolinal] (Boc-Ser-Pro-aldehyde), in data set [1] (2.9 mg/kg i.p. after training), the “Retention Test Latency, 24 hr” value is > 300.0 s and the “Retention Test Latency, 48 hr” value was > 300.0 s. In addition, in data set [1] (2.9 mg/kg p.o. after training), the “Retention Test Latency, 24 hr” value came to 262.9 s and the “Retention Test Latency, 48 hr” value was found to be 185.2 s. Besides, in “Toxicity test (LD50)”, the LD50 was > 1000 mg/kg.

`CC(C)(C)OC(=O)N[C@@H](Cc1ccc(O)cc1)C(=O)N1CCC[C@H]1C=O` [t-Butyloxycarbonyl-tyrosyl-prolinal, t-butyloxycarbonyl-tyrosyl-prolinal] (Boc-Tyr-Pro-aldehyde): in data set [1] (3.6 mg/kg i.p. after training), the “Retention Test Latency, 24 hr” value was determined as 250.8 s and the “Retention Test Latency, 48 hr” value is 206.9 s. Moreover, in data set [1] (3.6 mg/kg p.o. after training), the “Retention Test Latency, 24 hr” value amounted to 180.5 s and the “Retention Test Latency, 48 hr” value was found to be 192.1 s. Further, in “Toxicity test (LD50)”, the LD50 turned out to be 933 mg/kg.

Values taken from patent US4687778A, “Anti-amnestic agent” (Kabushiki Kaisha Yakult Honsha, priority 1984, dated 1987).
